Experimental findings from patent US12180187B2, “1-phenyl-5-azinylpyrazolyl-3-oxyalkyl acids and their use for controlling unwanted plant growth” (BAYER AKTIENGESELLSCHAFT, priority 2019, dated 2024) are described below.

The subject of assay [1] is VERPE. The experiment in a line: Post-emergence action against VERPE, 1.28 kg/ha. The assay is classed as in vivo, Veronica persica. The conditions noted are these: dosage 1280 g/ha, visual rating about 3 weeks after treatment vs untreated controls (100% = plants died). An outline of the steps: (§1)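 Greenhouse-grown weeds (sandy loam, twin-sown pots) were treated 2–3 weeks post-sowing at one leaf. The spray was an aqueous WP/EC preparation plus 0.5% additive, applied at 600 L/ha. Scoring was visual at ~3 weeks, 0–100% versus untreated controls.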

The test system of assay [2] is POAAN. The experiment in a line: Pre-emergence action against POAAN, 1280 g/ha. The assay is classed as in vivo, Poa annua. The note with it: visual scoring after about 3 weeks vs untreated controls, 100% = plants have died, 0% = like control plants. An outline of the steps: (§2)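 Sandy loam pots, seeds covered with soil; aqueous WP/EC spray on covering soil, 0.5% additive, 600 L/ha. Greenhouse growth, good conditions. Readout: visual % activity at ~3 weeks (0% = like control, 100% = dead).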

The test system of assay [3] is AMARE. Put plainly: Pre-emergence action against AMARE, 1280 g/ha. Type of assay: in vivo, Amaranthus retroflexus. The conditions noted are these: scored visually after about 3 weeks vs untreated controls (100% = plants have died). An outline of the steps: as §2
Assay [4] has as its system AMARE. The experiment in a line: Post-emergence action against AMARE, 1.28 kg/ha. Type of assay: in vivo, Amaranthus retroflexus. The conditions noted are these: dosage 1280 g/ha, visual rating about 3 weeks after treatment vs untreated controls (100% = plants died). An outline of the steps: as §1
Assay [5] concerns ALOMY. Put plainly: Pre-emergence action against ALOMY, 1280 g/ha. Type of assay: in vivo, Alopecurus myosuroides. The conditions noted are these: visual scoring after about 3 weeks vs untreated controls, 100% = plants have died, 0% = like control plants. An outline of the steps: as §2
The subject of assay [6] is ALOMY. The experiment in a line: Post-emergence action against ALOMY, 1.28 kg/ha. The assay is classed as in vivo, Alopecurus myosuroides. The conditions noted are these: dosage 1280 g/ha, visual rating about 3 weeks after treatment vs untreated controls. An outline of the steps: as §1
Assay [7] concerns STEME. Put plainly: Pre-emergence action against STEME, 1280 g/ha. The assay is classed as in vivo, Stellaria media. The note with it: scored visually after about 3 weeks vs untreated controls (100% = plants have died). An outline of the steps: as §2
Assay [8] deals with VERPE. Put plainly: Pre-emergence action against VERPE, 1280 g/ha. The assay is classed as in vivo, Veronica persica. The conditions noted are these: scored visually after about 3 weeks vs untreated controls (100% = plants have died). An outline of the steps: as §2
Assay [9] concerns SETVI. The experiment in a line: Pre-emergence action against SETVI, 1280 g/ha. Type of assay: in vivo, Setaria viridis. The conditions noted are these: visual scoring after about 3 weeks vs untreated controls, 100% = plants have died, 0% = like control plants. An outline of the steps:
as §2

For assay [10], the system named is MATIN. Put plainly: Post-emergence action against MATIN, 1.28 kg/ha. The assay is classed as in vivo, Tripleurospermum inodorum (Matricaria inodora). The note with it: dosage 1280 g/ha, visual rating about 3 weeks after treatment vs untreated controls (100% = plants died). An outline of the steps: as §1
In assay [11] the test system is ECHCG. The experiment in a line: Pre-emergence action against ECHCG, 1280 g/ha. Type of assay: in vivo, Echinochloa crus-galli. The note with it: visual scoring after about 3 weeks vs untreated controls, 100% = plants have died, 0% = like control plants. An outline of the steps:
as §2

Assay [12] concerns MATIN. Put plainly: Pre-emergence action against MATIN, 1280 g/ha. The assay is classed as in vivo, Tripleurospermum inodorum (Matricaria inodora). The conditions noted are these: scored visually after about 3 weeks vs untreated controls (100% = plants have died). An outline of the steps:
as §2

Assay [13] has as its system DIGSA. Put plainly: Post-emergence action against DIGSA, 1.28 kg/ha. The assay is classed as in vivo, Digitaria sanguinalis. The conditions noted are these: dosage 1280 g/ha, visual rating about 3 weeks after treatment vs untreated controls. An outline of the steps: as §1
Assay [14] concerns DIGSA. Put plainly: Pre-emergence action against DIGSA, 1280 g/ha. Type of assay: in vivo, Digitaria sanguinalis. The note with it: visual scoring after about 3 weeks vs untreated controls, 100% = plants have died, 0% = like control plants. An outline of the steps:
as §2

Assay [15] concerns LOLRI. Put plainly: Pre-emergence action against LOLRI, 1280 g/ha. The assay is classed as in vivo, Lolium rigidum. The note with it: visual scoring after about 3 weeks vs untreated controls, 100% = plants have died, 0% = like control plants. An outline of the steps: as §2
In assay [16] the test system is KCHSC. Put plainly: Post-emergence action against KCHSC, 1.28 kg/ha. The assay is classed as in vivo, Bassia scoparia. The note with it: dosage 1280 g/ha, visual rating about 3 weeks after treatment vs untreated controls (100% = plants died). The method, then: • a) Seeds of mono- and dicotyledonous weed plants are placed in plastic pots in sandy loam soil (twin sowing with one species each of mono- or dicotyledonous weed plants per pot), covered with soil and cultivated in a greenhouse under controlled growth conditions. 2 to 3 weeks after sowing, the test plants are treated at the one-leaf stage. The compounds of the invention, formulated in the form of wettable powders (WP) or as emulsion concentrates (EC), are applied to the green parts of the plants as aqueous suspension or emulsion with addition of 0.5% additive at a water application rate equivalent to 600 litres per hectare. After the test plants have been kept in the greenhouse under optimum growth conditions for about 3 weeks, the activity of the preparations is rated visually in comparison to untreated controls. For example, 100% activity=the plants have died, 0% activity=like control plants. As shown by the results, compounds of the general formula (I) of the invention, in post-emergence treatment, have very good herbicidal efficacy (90% to 100% herbicidal action) against harmful plants such as Abutilon theophrasti, Digitaria sanguinalis, Echinochloa crus-galli, Matricaria inodora, Poa annua, at an application rate of 1.28 kg of active substance per hectare.

For assay [17], the system named is POAAN. Put plainly: Post-emergence action against POAAN, 1.28 kg/ha. The assay is classed as in vivo, Poa annua. The note with it: dosage 1280 g/ha, visual rating about 3 weeks after treatment vs untreated controls. An outline of the steps:
as §1

In assay [18] the test system is ECHCG. Put plainly: Post-emergence action against ECHCG, 1.28 kg/ha. The assay is classed as in vivo, Echinochloa crus-galli. The conditions noted are these: dosage 1280 g/ha, visual rating about 3 weeks after treatment vs untreated controls. An outline of the steps:
as §1

Assay [19] deals with SETVI. The experiment in a line: Post-emergence action against SETVI, 1.28 kg/ha. The assay is classed as in vivo, Setaria viridis. The note with it: dosage 1280 g/ha, visual rating about 3 weeks after treatment vs untreated controls. An outline of the steps: as §1
The subject of assay [20] is ABUTH. Put plainly: Post-emergence action against ABUTH, 1.28 kg/ha. The assay is classed as in vivo, Abutilon theophrasti. The note with it: dosage 1280 g/ha, visual rating about 3 weeks after treatment vs untreated controls (100% = plants died). An outline of the steps: as §1

For `CCOC(=O)COc1nn(-c2ccccc2F)c(-c2ccc(F)cn2)c1I` [II-012], in assay [1], the “Post-emergence action against VERPE” value was 100%. The “Pre-emergence action against POAAN” value in assay [2] worked out at 100%. Moreover, the “Pre-emergence action against AMARE” value in [3] is on record as 90%. In [4], the “Post-emergence action against AMARE” value is listed as 100%. Besides, the “Pre-emergence action against ALOMY” value in assay [5] was found to be 90%. Besides, the “Post-emergence action against ALOMY” value in [6] is reported as 100%. The “Pre-emergence action against STEME” value in [7] stood at 100%. The “Pre-emergence action against VERPE” value in assay [8] is 90%. Further, in assay [9], the “Pre-emergence action against SETVI” value is on record as 100%. Further, in assay [10], the “Post-emergence action against MATIN” value is 90%. Moreover, the “Pre-emergence action against ECHCG” value in assay [11] was 90%. Further, the “Pre-emergence action against MATIN” value in assay [12] came out at 90%. The “Post-emergence action against DIGSA” value in [13] is reported as 90%. Also, the “Pre-emergence action against DIGSA” value in assay [14] is 100%. Moreover, in assay [15], the “Pre-emergence action against LOLRI” value is 100%. Moreover, the “Post-emergence action against KCHSC” value in assay [16] was found to be 100%. Also, the “Post-emergence action against POAAN” value in [17] worked out at 100%. Also, in [18], the “Post-emergence action against ECHCG” value amounted to 100%. The “Post-emergence action against SETVI” value in assay [19] amounted to 90%. In addition, the “Post-emergence action against ABUTH” value in assay [20] was 90%.

As to `CCOC(=O)COc1nn(-c2ccccc2F)c(-c2ccnnc2)c1Br` [IV-001, Ethyl {[4-bromo-1-(2-fluorophenyl)-5-(pyridazin-4-yl)-1H-pyrazol-3-yl]oxy}acetate], the pest or weed control at 1280 g/ha in assay [1] (Veronica persica, 504 h) worked out at 90%; in assay [2] (Poa annua, 504 h), 100%; in assay [3] (Amaranthus retroflexus, 504 h), 90%; in assay [7] (Stellaria media, 504 h), 90%; in assay [9] (Setaria viridis, 504 h), 100%; in [11] (Echinochloa crus-galli, 504 h), 90%. Moreover, the pest or weed control at 1280 g/ha in [12] (Tripleurospermum inodorum, 504 h) was 90%; in assay [15] (Lolium rigidum, 504 h) it was 100%; in assay [17] (Poa annua, 504 h) it was 100%; in assay [18] (Echinochloa crus-galli, 504 h), 90%. Besides, the “Post-emergence action against ALOMY” value in assay [6] is recorded as 100%. Further, in assay [16], the “Post-emergence action against KCHSC” value is recorded as 90%. For the same compound, the “Post-emergence action against SETVI” value in [19] came out at 100%.

With `COC(=O)CNC(=O)COc1nn(-c2ccccc2F)c(-c2ccnc(F)c2)c1Br` [VIII-009], in assay [1], the “Post-emergence action against VERPE” value is given as 100%. The “Pre-emergence action against POAAN” value in [2] is 100%. Further, the “Pre-emergence action against AMARE” value in assay [3] is reported as 100%. Besides, the “Post-emergence action against AMARE” value in assay [4] is on record as 90%. The “Post-emergence action against ALOMY” value in assay [6] worked out at 100%. Besides, in [7], the “Pre-emergence action against STEME” value is 100%. Besides, the “Pre-emergence action against VERPE” value in [8] was 100%. Moreover, the “Pre-emergence action against SETVI” value in assay [9] was found to be 100%. In [10], the “Post-emergence action against MATIN” value is on record as 90%. The “Pre-emergence action against ECHCG” value in assay [11] came out at 100%. In addition, the “Pre-emergence action against MATIN” value in assay [12] is given as 100%. Besides, the “Post-emergence action against DIGSA” value in assay [13] was 100%. Moreover, the “Pre-emergence action against DIGSA” value in [14] was 100%. The “Pre-emergence action against LOLRI” value in [15] came to 90%. Moreover, in assay [16], the “Post-emergence action against KCHSC” value was found to be 90%. Besides, in assay [17], the “Post-emergence action against POAAN” value was found to be 100%. The “Post-emergence action against ECHCG” value in assay [18] turned out to be 100%. Moreover, in [19], the “Post-emergence action against SETVI” value is recorded as 90%.
